ChEMBL document CHEMBL5291721, “A preclinical secondary pharmacology resource illuminates target-adverse drug reaction associations of marketed drugs” (Nat Commun, 2023)

Legend:
[1] = target: Kappa-type opioid receptor (Homo sapiens, UniProt P41145)
[2] = target: T1, Gamma-aminobutyric acid receptor subunit alpha-1 (Rattus norvegicus, UniProt P62813); assay type: functional
[3] = target: T2, Alpha-2C adrenergic receptor (Homo sapiens, UniProt P18825); assay type: functional
T2 sequence (P18825 whole entry): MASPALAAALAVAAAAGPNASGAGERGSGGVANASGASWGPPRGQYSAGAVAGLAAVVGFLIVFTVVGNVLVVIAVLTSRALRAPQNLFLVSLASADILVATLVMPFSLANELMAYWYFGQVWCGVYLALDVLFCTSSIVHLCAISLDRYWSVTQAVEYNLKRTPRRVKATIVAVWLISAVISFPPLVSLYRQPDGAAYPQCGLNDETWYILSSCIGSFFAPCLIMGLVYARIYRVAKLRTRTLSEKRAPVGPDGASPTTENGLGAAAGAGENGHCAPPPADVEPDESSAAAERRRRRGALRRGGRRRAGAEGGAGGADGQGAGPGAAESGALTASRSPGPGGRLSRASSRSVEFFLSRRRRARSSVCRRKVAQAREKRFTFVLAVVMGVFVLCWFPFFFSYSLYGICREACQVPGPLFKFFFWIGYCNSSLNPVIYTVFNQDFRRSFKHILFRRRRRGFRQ

Endothelin-1 receptor = target: T3, Endothelin-1 receptor (Homo sapiens, UniProt P25101)
T3 sequence (P25101 whole entry): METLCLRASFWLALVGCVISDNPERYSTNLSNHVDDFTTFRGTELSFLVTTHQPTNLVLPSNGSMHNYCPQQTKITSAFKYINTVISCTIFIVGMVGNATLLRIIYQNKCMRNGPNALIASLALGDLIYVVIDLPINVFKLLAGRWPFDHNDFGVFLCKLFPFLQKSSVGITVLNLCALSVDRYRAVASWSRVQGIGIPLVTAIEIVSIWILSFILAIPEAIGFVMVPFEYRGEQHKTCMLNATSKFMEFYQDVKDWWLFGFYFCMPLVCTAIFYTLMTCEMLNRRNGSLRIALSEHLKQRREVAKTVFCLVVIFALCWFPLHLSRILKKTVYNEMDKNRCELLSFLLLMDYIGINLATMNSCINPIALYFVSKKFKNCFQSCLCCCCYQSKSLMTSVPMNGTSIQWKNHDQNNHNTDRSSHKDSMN

[4] = target: T1, Gamma-aminobutyric acid receptor subunit alpha-1
[5] = target: Sodium-dependent serotonin transporter (Homo sapiens, UniProt P31645)
[6] = target: Muscarinic acetylcholine receptor M3 (Homo sapiens, UniProt P20309)
[7] = target: Neuronal acetylcholine receptor subunit alpha-4 (Homo sapiens, UniProt P43681)
[8] = target: T4, 5-hydroxytryptamine receptor 1A (Homo sapiens, UniProt P08908); assay type: functional, cell-based
T4 sequence (P08908 whole entry): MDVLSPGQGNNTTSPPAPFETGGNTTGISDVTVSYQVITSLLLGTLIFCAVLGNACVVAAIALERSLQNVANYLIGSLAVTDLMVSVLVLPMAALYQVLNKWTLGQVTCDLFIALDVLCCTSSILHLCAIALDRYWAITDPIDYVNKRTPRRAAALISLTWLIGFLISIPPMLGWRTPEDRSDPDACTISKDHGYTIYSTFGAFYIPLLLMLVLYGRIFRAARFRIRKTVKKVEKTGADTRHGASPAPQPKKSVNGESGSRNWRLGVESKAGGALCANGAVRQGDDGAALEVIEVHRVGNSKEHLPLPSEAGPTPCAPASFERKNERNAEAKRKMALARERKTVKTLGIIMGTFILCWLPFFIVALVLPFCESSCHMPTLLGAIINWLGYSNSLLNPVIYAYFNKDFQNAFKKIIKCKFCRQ

[9] = target: 5-hydroxytryptamine receptor 2B (Homo sapiens, UniProt P41595); assay type: functional, cell-based
[10] = target: T5, Gastrin/cholecystokinin type B receptor (Homo sapiens, UniProt P32239)
T5 sequence (P32239 whole entry): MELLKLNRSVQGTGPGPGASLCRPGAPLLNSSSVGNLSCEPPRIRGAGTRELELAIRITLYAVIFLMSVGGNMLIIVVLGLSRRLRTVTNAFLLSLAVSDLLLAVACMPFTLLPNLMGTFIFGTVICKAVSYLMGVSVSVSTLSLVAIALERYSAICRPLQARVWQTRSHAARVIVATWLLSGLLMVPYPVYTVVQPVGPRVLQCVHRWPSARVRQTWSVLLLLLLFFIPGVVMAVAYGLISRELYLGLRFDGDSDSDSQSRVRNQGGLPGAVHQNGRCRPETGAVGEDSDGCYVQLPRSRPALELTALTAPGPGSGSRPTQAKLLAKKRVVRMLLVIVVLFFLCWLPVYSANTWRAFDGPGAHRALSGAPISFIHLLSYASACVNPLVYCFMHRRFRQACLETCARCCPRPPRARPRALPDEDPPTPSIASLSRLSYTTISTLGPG

Vasopressin V2 receptor = Vasopressin V2 receptor (Homo sapiens, UniProt P30518)
[11] = target: 5-hydroxytryptamine receptor 2A (Homo sapiens, UniProt P28223); assay type: functional, cell-based
D(3) dopamine receptor = D(3) dopamine receptor (Homo sapiens, UniProt P35462)
Cannabinoid receptor 1 = Cannabinoid receptor 1 (Homo sapiens, UniProt P21554); assay type: functional, cell-based
[12] = target: T6, Alpha-1A adrenergic receptor (Homo sapiens, UniProt P35348); assay type: functional, cell-based
T6 sequence (P35348 whole entry): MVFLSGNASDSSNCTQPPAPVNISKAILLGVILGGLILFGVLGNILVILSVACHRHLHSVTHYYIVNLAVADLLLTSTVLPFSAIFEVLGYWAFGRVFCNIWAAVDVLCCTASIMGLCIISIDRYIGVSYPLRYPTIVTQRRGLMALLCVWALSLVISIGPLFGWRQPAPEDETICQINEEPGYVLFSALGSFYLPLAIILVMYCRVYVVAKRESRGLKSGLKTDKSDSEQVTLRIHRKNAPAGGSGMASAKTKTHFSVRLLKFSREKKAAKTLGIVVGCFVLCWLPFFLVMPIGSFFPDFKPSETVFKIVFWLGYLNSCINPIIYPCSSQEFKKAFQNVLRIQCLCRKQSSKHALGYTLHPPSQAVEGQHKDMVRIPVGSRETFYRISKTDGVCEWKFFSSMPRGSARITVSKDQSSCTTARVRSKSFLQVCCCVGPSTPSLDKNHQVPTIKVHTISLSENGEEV
Also: assay procedure not described here.

T1 sequence (P62813 whole entry): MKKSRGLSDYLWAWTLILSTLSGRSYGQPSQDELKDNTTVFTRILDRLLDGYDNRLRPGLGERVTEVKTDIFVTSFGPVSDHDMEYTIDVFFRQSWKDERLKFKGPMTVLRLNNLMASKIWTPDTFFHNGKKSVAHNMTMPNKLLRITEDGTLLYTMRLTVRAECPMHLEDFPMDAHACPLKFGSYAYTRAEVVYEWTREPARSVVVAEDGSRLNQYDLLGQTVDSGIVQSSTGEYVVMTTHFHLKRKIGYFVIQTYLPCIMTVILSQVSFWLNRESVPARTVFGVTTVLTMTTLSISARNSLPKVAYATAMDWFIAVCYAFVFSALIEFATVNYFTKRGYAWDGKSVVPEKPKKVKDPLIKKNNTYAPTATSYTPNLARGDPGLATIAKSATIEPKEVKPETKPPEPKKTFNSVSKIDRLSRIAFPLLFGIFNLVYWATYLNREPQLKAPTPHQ
Sequence of D(3) dopamine receptor (P35462 whole entry): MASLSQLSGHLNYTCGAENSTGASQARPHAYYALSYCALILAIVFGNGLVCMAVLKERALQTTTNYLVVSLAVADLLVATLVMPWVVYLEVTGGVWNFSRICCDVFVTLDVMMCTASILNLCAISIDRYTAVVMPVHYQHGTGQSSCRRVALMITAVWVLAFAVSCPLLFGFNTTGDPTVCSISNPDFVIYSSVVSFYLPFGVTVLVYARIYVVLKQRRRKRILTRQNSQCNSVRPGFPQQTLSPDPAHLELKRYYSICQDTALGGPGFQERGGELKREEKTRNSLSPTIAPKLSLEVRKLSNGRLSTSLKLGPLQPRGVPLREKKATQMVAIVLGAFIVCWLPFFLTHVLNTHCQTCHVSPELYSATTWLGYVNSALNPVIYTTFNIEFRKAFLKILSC
Sequence of Cannabinoid receptor 1 (P21554 whole entry): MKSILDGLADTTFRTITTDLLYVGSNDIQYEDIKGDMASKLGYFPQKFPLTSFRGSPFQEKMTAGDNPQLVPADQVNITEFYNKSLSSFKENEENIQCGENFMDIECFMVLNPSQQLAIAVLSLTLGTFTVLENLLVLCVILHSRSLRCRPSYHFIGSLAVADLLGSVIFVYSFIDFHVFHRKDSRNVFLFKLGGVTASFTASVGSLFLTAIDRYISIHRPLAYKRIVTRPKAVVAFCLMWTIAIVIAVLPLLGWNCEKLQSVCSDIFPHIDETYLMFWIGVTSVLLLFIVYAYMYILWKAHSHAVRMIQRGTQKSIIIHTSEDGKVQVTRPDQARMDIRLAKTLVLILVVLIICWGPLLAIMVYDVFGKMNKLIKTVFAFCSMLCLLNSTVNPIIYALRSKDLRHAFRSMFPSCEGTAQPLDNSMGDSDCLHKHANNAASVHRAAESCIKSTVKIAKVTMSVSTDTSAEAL
Sequence of Neuronal acetylcholine receptor subunit alpha-4 (P43681 whole entry): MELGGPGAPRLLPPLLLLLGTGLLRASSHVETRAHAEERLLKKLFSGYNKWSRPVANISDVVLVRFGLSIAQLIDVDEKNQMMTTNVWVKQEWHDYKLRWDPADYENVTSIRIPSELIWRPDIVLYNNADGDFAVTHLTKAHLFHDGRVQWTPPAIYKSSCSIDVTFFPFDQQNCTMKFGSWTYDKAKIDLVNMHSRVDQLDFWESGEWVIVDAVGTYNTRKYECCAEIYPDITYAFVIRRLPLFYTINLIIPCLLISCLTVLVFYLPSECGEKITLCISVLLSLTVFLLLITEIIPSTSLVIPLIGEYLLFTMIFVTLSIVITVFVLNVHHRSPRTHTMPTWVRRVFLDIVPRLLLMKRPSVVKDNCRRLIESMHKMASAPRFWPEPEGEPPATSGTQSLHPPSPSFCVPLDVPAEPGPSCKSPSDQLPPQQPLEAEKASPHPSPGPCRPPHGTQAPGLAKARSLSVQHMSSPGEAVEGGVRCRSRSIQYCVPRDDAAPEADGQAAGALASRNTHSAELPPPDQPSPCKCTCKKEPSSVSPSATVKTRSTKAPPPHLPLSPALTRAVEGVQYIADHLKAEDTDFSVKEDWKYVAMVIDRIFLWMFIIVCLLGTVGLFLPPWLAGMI
Sequence of Sodium-dependent serotonin transporter (P31645 whole entry): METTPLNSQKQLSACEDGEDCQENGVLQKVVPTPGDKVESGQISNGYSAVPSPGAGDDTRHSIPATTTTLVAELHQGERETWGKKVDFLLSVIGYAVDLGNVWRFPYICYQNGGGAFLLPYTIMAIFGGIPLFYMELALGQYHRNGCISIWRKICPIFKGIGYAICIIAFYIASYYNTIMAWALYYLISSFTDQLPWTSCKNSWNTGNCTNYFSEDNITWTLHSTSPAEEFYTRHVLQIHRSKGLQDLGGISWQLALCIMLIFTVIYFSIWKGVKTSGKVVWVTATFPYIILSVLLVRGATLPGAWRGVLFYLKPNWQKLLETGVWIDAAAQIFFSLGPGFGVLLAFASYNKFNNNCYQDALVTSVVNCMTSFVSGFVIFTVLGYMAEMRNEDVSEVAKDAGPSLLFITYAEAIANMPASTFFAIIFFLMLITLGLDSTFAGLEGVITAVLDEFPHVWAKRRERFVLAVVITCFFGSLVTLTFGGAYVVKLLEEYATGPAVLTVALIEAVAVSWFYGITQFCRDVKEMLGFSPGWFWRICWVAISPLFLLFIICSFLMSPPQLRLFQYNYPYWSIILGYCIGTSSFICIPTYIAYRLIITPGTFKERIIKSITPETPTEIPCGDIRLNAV
Sequence of 5-hydroxytryptamine receptor 2A (P28223 whole entry): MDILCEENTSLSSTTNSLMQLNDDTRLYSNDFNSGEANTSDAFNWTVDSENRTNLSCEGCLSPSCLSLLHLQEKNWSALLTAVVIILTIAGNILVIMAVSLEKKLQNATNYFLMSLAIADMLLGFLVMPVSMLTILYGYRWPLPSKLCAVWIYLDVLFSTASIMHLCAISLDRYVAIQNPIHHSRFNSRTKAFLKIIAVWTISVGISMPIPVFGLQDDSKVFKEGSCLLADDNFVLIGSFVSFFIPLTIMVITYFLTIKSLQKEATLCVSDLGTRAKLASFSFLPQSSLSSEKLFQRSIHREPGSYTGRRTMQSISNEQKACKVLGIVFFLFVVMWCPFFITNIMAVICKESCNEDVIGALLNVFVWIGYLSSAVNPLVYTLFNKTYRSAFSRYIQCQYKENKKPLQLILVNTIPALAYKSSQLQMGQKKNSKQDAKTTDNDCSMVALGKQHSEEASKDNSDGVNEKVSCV
Sequence of Muscarinic acetylcholine receptor M3 (P20309 whole entry): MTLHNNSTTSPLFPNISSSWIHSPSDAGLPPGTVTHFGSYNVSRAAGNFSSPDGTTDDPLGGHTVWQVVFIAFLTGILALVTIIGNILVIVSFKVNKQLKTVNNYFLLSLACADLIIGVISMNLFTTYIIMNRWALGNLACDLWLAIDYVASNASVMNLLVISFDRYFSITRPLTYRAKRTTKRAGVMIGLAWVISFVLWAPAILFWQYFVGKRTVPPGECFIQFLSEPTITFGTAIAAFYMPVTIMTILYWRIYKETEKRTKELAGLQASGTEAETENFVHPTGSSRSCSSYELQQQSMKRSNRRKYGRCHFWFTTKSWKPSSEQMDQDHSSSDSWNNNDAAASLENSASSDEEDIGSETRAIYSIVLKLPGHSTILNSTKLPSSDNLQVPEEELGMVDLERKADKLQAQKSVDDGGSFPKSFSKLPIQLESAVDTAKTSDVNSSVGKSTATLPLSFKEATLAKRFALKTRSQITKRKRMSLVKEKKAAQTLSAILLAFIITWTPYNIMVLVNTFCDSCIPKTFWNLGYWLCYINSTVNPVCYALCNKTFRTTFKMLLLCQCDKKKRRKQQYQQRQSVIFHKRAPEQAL
Sequence of 5-hydroxytryptamine receptor 2B (P41595 whole entry): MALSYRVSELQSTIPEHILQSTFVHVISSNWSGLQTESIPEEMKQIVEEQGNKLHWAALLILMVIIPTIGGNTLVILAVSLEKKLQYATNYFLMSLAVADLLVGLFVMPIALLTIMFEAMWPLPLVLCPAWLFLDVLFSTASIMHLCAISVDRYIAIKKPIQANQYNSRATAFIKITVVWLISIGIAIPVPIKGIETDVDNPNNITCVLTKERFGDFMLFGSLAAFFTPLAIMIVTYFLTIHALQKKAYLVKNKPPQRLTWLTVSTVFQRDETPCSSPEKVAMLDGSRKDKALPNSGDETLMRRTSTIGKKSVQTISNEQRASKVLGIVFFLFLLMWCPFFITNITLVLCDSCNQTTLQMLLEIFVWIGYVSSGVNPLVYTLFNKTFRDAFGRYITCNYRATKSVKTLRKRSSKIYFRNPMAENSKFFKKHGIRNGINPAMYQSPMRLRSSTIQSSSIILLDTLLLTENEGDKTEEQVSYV
Sequence of Kappa-type opioid receptor (P41145 whole entry): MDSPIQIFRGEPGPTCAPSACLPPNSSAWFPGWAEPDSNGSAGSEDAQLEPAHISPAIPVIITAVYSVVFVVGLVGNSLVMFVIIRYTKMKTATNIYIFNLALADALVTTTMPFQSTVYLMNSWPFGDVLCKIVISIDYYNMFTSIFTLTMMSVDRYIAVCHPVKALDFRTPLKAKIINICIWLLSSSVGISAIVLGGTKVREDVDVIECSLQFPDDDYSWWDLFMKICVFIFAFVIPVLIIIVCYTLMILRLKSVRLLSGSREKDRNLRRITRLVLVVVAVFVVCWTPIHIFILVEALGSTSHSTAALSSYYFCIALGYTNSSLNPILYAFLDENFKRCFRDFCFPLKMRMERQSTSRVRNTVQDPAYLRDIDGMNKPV
Sequence of Vasopressin V2 receptor (P30518 whole entry): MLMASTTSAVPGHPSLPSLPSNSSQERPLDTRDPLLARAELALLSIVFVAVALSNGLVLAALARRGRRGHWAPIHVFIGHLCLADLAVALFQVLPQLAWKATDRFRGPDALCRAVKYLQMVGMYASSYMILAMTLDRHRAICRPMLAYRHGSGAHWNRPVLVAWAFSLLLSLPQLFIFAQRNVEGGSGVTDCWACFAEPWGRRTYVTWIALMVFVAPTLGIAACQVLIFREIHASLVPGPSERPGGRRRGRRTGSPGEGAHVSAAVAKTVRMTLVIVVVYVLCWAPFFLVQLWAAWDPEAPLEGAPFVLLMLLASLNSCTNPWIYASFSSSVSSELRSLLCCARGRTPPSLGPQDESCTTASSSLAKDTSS

AC50 [1]	AC50 [2]	AC50 [3]	AC50 (Endothelin-1 receptor)	AC50 [4]	AC50 [5]	AC50 [6]	AC50 [7]	AC50 [8]	AC50 [9]	AC50 [10]	AC50 (Vasopressin V2 receptor)	AC50 [11]	AC50 (D(3) dopamine receptor)	AC50 (Cannabinoid receptor 1)	AC50 [12]	SMILES
> 30 µM	> 30 µM	> 30 µM	> 30 µM	> 30 µM	21 µM	> 30 µM	> 30 µM	> 30 µM	> 30 µM	> 30 µM	> 30 µM	> 30 µM	> 30 µM	> 30 µM	> 30 µM	COc1ccc(C(=O)N2CCN(c3ccc4c(c3)CCC(=O)N4)CC2)cc1OC [VESNARINONE]
> 30 µM	> 30 µM	> 30 µM	> 30 µM	> 30 µM	> 30 µM	> 30 µM	> 30 µM	> 30 µM	> 30 µM	> 10 µM	> 30 µM	> 30 µM	> 30 µM	> 30 µM	> 30 µM	O=C(O)Cc1cn(-c2ccccc2)nc1-c1ccc(Cl)cc1 [LONAZOLAC]
